melting point [°C] | SMILES
143 to 144 | COC(=O)C1Cc2c([nH]c3ccccc23)C(C)N1Cc1ccccc1 (centres undefined)
139 to 140 | CCc1cn(C2CC(F)C(CO)O2)c(=O)[nH]c1=S (centres undefined)
165 to 166 | COc1cc(C(=O)Nc2c(Cl)cncc2Cl)cc2c1oc1ccccc12
77 to 79 | COc1cc2c(cc1OC)C(=O)C(=O)N(CCCN(C)CCCSc1ccccc1)CC2
96 to 97 | CCCCCS(=O)(=O)NC(=O)CCCc1ccc(OCCOCC)cc1Oc1ncc(C(F)(F)F)cc1Cl
194 to 195 | CNc1nc(Cc2cc(OC)c(OC)c(OC)c2)nc2sc(C#N)c(C)c12
310 to 314 | Cc1[nH]c(=O)ccc1-c1ccc(-n2ccnc2)cc1
141 to 143 | O=C(O)CCC(=O)c1ccc(Br)s1
> 280 | N#Cc1cnc2c(-c3ccncc3)c(-c3ccc(F)cc3)nn2c1N
104 to 106 | CN1c2ccccc2CN(C(=O)c2ccc(C3CCCCC3)cc2)c2ccccc21
190 to 193 | Cc1cccc2c1C=C(C(=O)O)C2C (centres undefined)
88 to 89 | CC(C)(C)c1cc(C(=O)CI)cc(C(C)(C)C)c1O
92 to 93 | CCOC(=O)c1cc2c(C)cccc2n1CCNS(=O)(=O)c1ccc(C)cc1
74 to 76 | CCCCCCCCOCCCN=C=O
45 to 46 | O=C(O)CCCCCCC=Cc1cccs1
182 to 184 | NC(=O)NNC(c1ccccc1)c1ccccc1
69.2 to 70 | CC(C)(COCC(C)(C)c1ccc(O)cc1)c1ccc(O)cc1
135 to 136 | CC(=O)NCc1ccc(CN2CCN(c3ccccc3)CC2)cc1
125 | CCN(CCCc1c[nH]c2c(F)cc(F)cc12)C1COc2c(C(N)=O)ccc(F)c2C1 (centres undefined)
251 to 253 | O=C(NCc1cccnc1)c1cc(N2CCN(Cc3ccc(F)cc3)C2=O)n[nH]1
339 to 341 | COC(=O)c1ccc(C(=O)Nc2nc(-c3cccc(C)c3)c(-c3ccncn3)s2)cc1
110 | O=C1C(CCC(O)c2ccc(F)cc2)C(c2ccc(-c3ccc(O)cc3)cc2)N1c1ccc(F)cc1 (centres undefined)
147 to 148 | COc1cc2c(cc1OC)[C@@H]1CCCC[C@@H]1N=C2c1ccc(C(=O)OCC2CC2)cc1 (racemic)
93 to 95 | OC(CCC1CCN(Cc2ccccc2)CC1)c1ccc(N2CCCC2)cc1 (centres undefined)

melting point [°C] | SMILES
172 to 175 | COC(=O)C1CCC2C3CCC4CC(O)C=CC4(C)C3C(=O)CC12C (centres undefined)
173 to 174 | N#CCn1nnc(NC(=O)C(c2ccccc2)c2ccccc2)n1
132 | CN1C(=O)CC(Sc2cc(C(C)(C)C)c(O)c(C(C)(C)C)c2)C1=O (centres undefined)
96 | Cc1ccc(S(=O)(=O)N2[C@H](CCCO)CC[C@H]2c2ccc(F)cc2)cc1
181 to 184 | CN(C)c1nc(Cl)nc(NCC(F)(F)F)n1
130 to 135 | CC1(C)Oc2ccc(C#N)cc2C(NC(=O)Nc2cccc(-c3ncco3)c2)C1O (centres undefined)
245 to 248 | CCOC(=O)c1ncc2[nH]c3ccc(C4=CC(=O)CCC4)cc3c2c1C
102 | CCN(CC)C(=O)c1nc(-c2cccc3ccccc23)no1
180 to 183 | O=C(CCC1CCCC1)N1CCN(C(=O)c2cc(C(F)(F)F)cc(C(F)(F)F)c2)[C@H](Cc2c[nH]c3ccccc23)C1
219 to 220 | COc1cc2c(cc1Br)-c1c(-c3cncs3)c3c(n1CC2)C(=O)N(C(C)(C)C)CCOC3
120 | COc1ccc(CN(CCN(C)CCCNC(=O)NCCCOc2cccc(CN3CCCCC3)c2)c2ccccn2)cc1
178 | NC(=O)C(Nc1ccc(Cl)cc1)c1c(Cl)cccc1Cl (centres undefined)
180 to 182 | CCn1cc(O)c(=O)c2ccccc21
101 to 102 | COCCNC(=O)c1cccc(-c2cccc3nc(Cc4cccc(C(F)(F)F)c4)sc23)c1
80 to 83 | Oc1ccc(Nc2nc(NCc3ccco3)nc(Nc3cccc(Oc4ccccc4)c3)n2)cc1
311 to 313 | O=C1Nc2ccc(Cl)nc2Oc2ccccc21
111 to 114 | Cc1cc(Oc2ccc(Cl)c(C(F)(F)F)c2)c(C)cc1N=CNC#N
95 to 96 | Cc1c(NCc2ccccc2)c2c(c3c1C(c1ccc(C(C)C)cc1)CO3)CCC2 (centres undefined)
86 to 87 | N#CCc1cn(Cc2ccc(OCc3ccccc3)cc2)nc1-c1ccc(F)cc1
138 | CC(=O)OC1CSC(Oc2cncc(-c3ccncc3)c2)C(OC(C)=O)C1OC(C)=O (centres undefined)
113 to 114 | CC(C)(C)OC(=O)N[C@H]1CCN(OCc2ccccc2)C1=O
163 to 164 | CC(C)(C)c1cc(CCc2ccccc2NC(=O)NCc2cccnc2)cc(C(C)(C)C)c1O
119 | O=C(COc1cc(Cl)c(Cl)cc1Cl)OCNC(=O)Oc1ccccc1Cl
163 to 164 | CCOC(=O)C(=NO)c1ccc(Br)cc1

melting point [°C] | SMILES
212 to 214 | Cn1c(COc2ccc(CC3SC(=O)NC3=O)cc2)nc2cc(C(F)(F)F)cnc21 (centres undefined)
150 to 151 | O=C(Nc1ccc(OCCN2CCOCC2)c2ccccc12)c1cc(F)cc(N2CCCCC2)c1
108 to 110 | COc1cccc(CNC(=O)[C@H]2N(C(=O)[C@@H](O)[C@@H](Cc3ccccc3)NC(=O)c3cccc(O)c3C)CSC2(C)C)c1
156 to 157 | CC(C)(C)c1ccnc(Oc2ccc(CCNc3ncnc4nccnc34)cc2)c1
150 | O=C(c1cccnc1-c1ccncc1)N1CCC(O)(Cc2ccccc2)CC1
200 | CCON=C(C(=O)O)c1csc(NC(c2ccccc2)(c2ccccc2)c2ccccc2)n1
143 to 145 | C1=CC2=c3ccccc3=NC2=C1
157 to 159 | CCCCn1nc(C(C)=O)nc1Cc1ccc(-c2ccccc2-c2nnn[nH]2)nc1
204 to 205 | CC(=O)Nc1ccc(S(=O)(=O)Nc2ccc(S(=O)(=O)C=CC#N)cc2)cc1
151 to 155 | Cc1cc(N2CCC(CC(=O)N3CCN(Cc4ccccc4)CC3)CC2)ccc1Oc1ccc(NS(=O)(=O)c2ccc(Cl)c(Cl)c2)cn1
188 to 190 | CS(=O)c1csc(C(=O)O)c1 (centres undefined)
110 to 112 | CC(C)(C)C1Cc2cc([N+](=O)[O-])ccc2N1 (centres undefined)
111 | COc1ccc(C=CC(=O)c2c(O)cc(OC)cc2OC)cc1
135 to 136 | O=c1[nH][nH]c(C(F)(F)F)c1Cc1ccc(Br)cc1
77 to 79 | COC1(c2ccc(C=Cc3cc(F)cc(F)c3NC(=O)C(C)(C)C)cc2)CCOCC1
132 to 134 | COc1ccc(-c2cc(Cl)c3c(Cl)c(O)ccc3c2)cc1
142 to 143 | COc1cc(-c2ncnc(OC)c2Cl)c(F)cc1Cl
174 to 175 | Cc1oc(-c2ccccc2)nc1COc1ccc(COc2ncccc2C=CC(=O)O)cc1
157 to 158 | O=C(O)CCC(=O)c1ccc2sc3ccccc3c2c1
88 | CCCC(CCC)(CCC)NC(=O)N(C)C
147 to 149 | O=C(CCCCCCOc1ccc(-c2ccccc2)cc1)NO
142 to 143 | COc1nc2ccccc2cc1N(C)C(=O)N1CCN(c2cc(C)cc(C)c2)CC1
128 to 129 | OC(Cn1cncn1)(c1ccccc1)c1ccccc1
85 to 86 | CCC(CC)(CC(=O)Nc1cccc(OCc2ccc3ccc(C(F)(F)F)cc3n2)c1)C(=O)O

melting point [°C] | SMILES
185 to 186 | CCC(=O)NC[C@H]1CN(c2ccc3c(c2)CCCc2cnoc2-3)C(=O)O1
80 to 81 | OCCCc1ccc2ccccc2c1OCc1ccccc1
138 to 139 | CC(=O)NCc1coc2c(OC(C)=O)cccc12
198 to 205 | COc1ccc(C(=O)Nc2c(Cl)cncc2Cl)c2c1OCC2CC(=O)OCc1ccccc1 (centres undefined)
141 to 143 | Cc1[nH]c(C(=O)NCc2ccc(Cl)c(Cl)c2)c(C)c1-c1nc2ccc(C(=O)c3ccccc3)cc2[nH]1
180 to 182 | CCc1nc2sc3ccccc3n2c1CO
109 to 111 | CCc1n[nH]c(CC)c1CCCCCCOc1ccc(O)cc1Cl
62 to 65 | CCOC(=O)c1ccc(OCC#Cc2ccccc2)c(OC)c1
148 to 149 | COc1ccc2cc(S(N)(=O)=O)oc2c1
91 to 92 | C=CCc1cc2c(c(CC=C)c1O)OCC(=O)N2CC=C
56 to 60 | C=C(C)C=COCC1CCn2c(nc3ccccc32)S1 (centres undefined)
187 to 188 | COc1ccc(-c2ccc3c(C(=O)N(C)C)c(OC)ccc3c2)cc1
130 | CC1(CCN2C(=O)c3cccc([N+](=O)[O-])c3C2O)OCCO1 (centres undefined)
184 | O=C(Nc1ccc(Cl)c(Cl)c1)O[C@H]1COC(c2ccccc2)=N[C@@H]1c1ccccc1 (racemic)
> 200 | CSc1nc(N)c(C#N)c(N2CCc3ccccc3CC2)n1
195 to 197 | COC(=O)c1oc(C(C)(C)C)cc1NC(=O)Nc1cccc(Cl)c1Cl
47 | CC1(C)CCOC1=Cn1cncn1
79 to 82 | CCOc1ccc(C(c2ccc(C(C)(C)C)cc2)C(C)[N+](=O)[O-])cc1 (centres undefined)
104 to 110 | CCCCC1=NC2(CCCC2)C(=O)N1Cc1ccc(-c2ccccc2S(=O)(=O)NC(=O)c2onc(C)c2C)c(CN2CCC(C)(C)C2=O)c1
184 to 186 | COc1cc2c(Oc3cnc4[nH]ccc4c3)ncnc2cc1OCCCN1CCCC1
129 to 132 | CC(=O)Oc1ccc2sc(S(N)(=O)=O)cc2c1
186 to 187 | Clc1ccc(-c2cc(C3CCN(CC4CCCCC4)CC3)n[nH]2)cc1
181 to 182 | O=C(O)CCC(=O)c1ccc(NC(=O)CCCl)cc1
165 to 167 | CCCc1nn(C)c2c(=O)[nH]c(-c3cc(CCC(=O)O)ccc3OCC)nc12

SMILES | melting point [°C]
CC(=O)c1ccc2c(c1)C(c1ccccc1F)=NC(C)C(=O)N2 (centres undefined) | 203
CN(C)CC#CCNC(=O)/C=C\C(=O)O | 155 to 157
NNC1=Nc2ccc(Cl)cc2N(c2ccccc2)C(=O)C1 | 91 to 93
